Data set [1] has as its system corneal endothelial (CE) cell. Nature of the data set: UVA-induced corneal endothelial cell loss in female mice, CYP1B1 inhibitor treatment. In kind it is in vivo, mouse. Here is the method: FIG. 12. […] TMS was injected intraperitoneally (1.5 mg/kg) in female mice 1 h prior to 500 J/cm^2 UVA and 3 times a week thereafter for two weeks. Mice similarly injected with DMSO served as the control (n=5; white bar).

For data set [2], the system named is corneal endothelial cell (CEnC). As to the kind of experiment: UVA light-induced CEnC loss in NQO1+/+ and NQO1−/− female mice (mouse model of FECD), HRT imaging. The class given is in vivo. Here is the method: A mouse model of FECD was generated by knocking out the NQO1 gene. […] NQO1+/+ and NQO1−/− female mice were irradiated with UVA (500 J/cm^2; time: 20 minutes) to initiate CEnC loss. Either TMS (1 mg/kg) or DMSO (vehicle) was intraperitoneally injected three times a week post-UVA irradiation until week 2 (FIG. 13A). Central corneal thickness (CCT) and Corneal endothelium (CE) imaging was performed using anterior segment-optical coherence tomography (OCT) and Heidelberg Retina Tomograph III (HRT III) prior to UVA irradiation and then at day 1, week 1, week 2, and week 4 post-UVA irradiation. The CE density (cells/mm^2) was quantified by a semi-automated cell counter inbuilt in HRT machine. A mouse model of FECD was generated by knocking out the NQO1 gene. […] NQO1+/+ and NQO1−/− female mice were irradiated with UVA (500 J/cm^2; time: 20 minutes) to initiate CEnC loss. Either berberine (10 mg/kg) or Vehicle (90% PBS+5% Tween-80+5% polyethylene glycol) was intraperitoneally injected immediately after and at week 1 post-UVA irradiation (FIG. 14A). Central corneal thickness (CCT) and corneal endothelium (CE) imaging was performed using anterior segment-optical coherence tomography (AS-OCT) and Heidelberg Retina Tomograph III (HRT III) prior to UVA irradiation and then at day 1, week 1, and week 2, post-UVA irradiation. The CE density (cells/mm^2) was quantified by a semi-automated cell counter inbuilt in HRT machine.

For data set [3], the system named is HCEnC-21T cells. As to the kind of experiment: LA-qPCR DNA lesion analysis in HCEnC-21T cells treated with 4-OHE2. In kind it is cell-based, human. To be noted: 15 μM 4-OHE2; 24 h. Here is the method:
(§1) Human Corneal Endothelial Cell Culture. Telomerase and SV40 T antigen immortalized normal human CE cell lines HCEnC-21T and HCEnC-SV-67F-16, respectively, were previously generated in our laboratory (26, 62). HCEnC-21T cells were seeded in estrogen-free medium (phenol red-free OptiMEM-I; Thermo Fisher Scientific) with charcoal stripped FBS (HyClone), 200 mg/L calcium chloride (Sigma-Aldrich), 0.08% chondroitin sulfate (Sigma-Aldrich) and treated with 15 μM 4-OHE2 (Steraloids) in phenol red-free OptiMEM-I. UVA Irradiation of Mouse Cornea. A UVA LED light source (M365LP1; Thorlabs) with an emission peak of 365 nm light, 9 nm bandwidth (FWHM) and irradiance of 398 mW/cm 2 was focused to illuminate a 4-mm-diameter spot onto the mouse cornea. The energy was measured using a laser sensor (model L49 [150A]; Ophir), and the time of UVA exposure was adjusted to deliver the appropriate fluence (10 min 29 s for 250 J/cm^2, 20 min 57 s for 500 J/cm^2, 31 min 26 s for 750 J/cm^2, and 41 min 54 s for 1,000 J/cm^2). The right eye (OD) was irradiated while the contralateral eye (OS) was covered with heat retention drapes (SpaceDrapes, Inc.) to serve as untreated control. […]
(§2) DNA Damage Analysis Using LA-qPCR. […] DNA lesion frequencies were calculated as described (24). […]

For data set [4], the system named is mouse corneal endothelial cell (MCEnC). As to the kind of experiment: UVA-induced FECD mouse model: corneal endothelial cell density (in vivo confocal HRT / ZO-1 immunostaining). To be noted: for increase in MCEnC density vs 1,000 J/cm^2 UVA irradiation only / MCEnC density: 2 mo, 1,000 J/cm^2 UVA; for increase in MCEnC density vs 1,000 J/cm^2 UVA irradiation only: NAC in drinking water 1 g/kg from 1 d prior. Here is the method: (§3) Experimental Animals. C57BL/6 wild-type mice (male and female, 7 to 15 wk old; The Jackson Laboratory or Charles River) were used for this study. Mice were housed in a climate-controlled animal facility at the Schepens Eye Research Institute (Boston) and kept under cyclic light conditions with 12 h ON or OFF. Mice were anesthetized with a combined dose of ketamine (100 mg/kg) and xylazine (20 mg/kg) administered intraperitoneally. Female mice were irradiated at proestrus stage (61). For the NAC-treated group, mice were fed daily with drinking water containing 1 g of NAC/kg body weight from 1 d prior up to 3 mo post-UVA. All animal experiments were approved by the Institutional Animal Care and Use Committee and adhered to the ARVO Statement for the Use of Animals in Ophthalmic and Vision Research.
Human Corneal Endothelial Cell Culture. Telomerase and SV40 T antigen immortalized normal human CE cell lines HCEnC-21T and HCEnC-SV-67F-16, respectively, were previously generated in our laboratory (26, 62). HCEnC-21T cells were seeded in estrogen-free medium (phenol red-free OptiMEM-I; Thermo Fisher Scientific) with charcoal stripped FBS (HyClone), 200 mg/L calcium chloride (Sigma-Aldrich), 0.08% chondroitin sulfate (Sigma-Aldrich) and treated with 15 μM 4-OHE2 (Steraloids) in phenol red-free OptiMEM-I. UVA Irradiation of Mouse Cornea. A UVA LED light source (M365LP1; Thorlabs) with an emission peak of 365 nm light, 9 nm bandwidth (FWHM) and irradiance of 398 mW/cm 2 was focused to illuminate a 4-mm-diameter spot onto the mouse cornea. The energy was measured using a laser sensor (model L49 [150A]; Ophir), and the time of UVA exposure was adjusted to deliver the appropriate fluence (10 min 29 s for 250 J/cm^2, 20 min 57 s for 500 J/cm^2, 31 min 26 s for 750 J/cm^2, and 41 min 54 s for 1,000 J/cm^2). The right eye (OD) was irradiated while the contralateral eye (OS) was covered with heat retention drapes (SpaceDrapes, Inc.) to serve as untreated control. Mouse eyeballs from CYP1B1-null mice (age 8 to 12 wk, 10 females and 10 males) (31) were enucleated, rinsed with phosphate-buffered saline (PBS), and transported on ice, and cornea excision was performed within 24 h of the animal's death. Four 12-inch RPR-3500A UVA tubes (The Southern New England UV Co.) emitting 350 nm light (irradiance: 7.13 mW/cm 2) were used to irradiate the corneoscleral buttons placed in sterile PBS, with the endothelial side facing the source. The fluence delivered was 25 J/cm^2 (58 min 24 s at a distance of 10 cm). Irradiated corneas were snap-frozen, homogenized using a tissue grinder, and dissolved in methanol:water (2:1) for estrogen metabolite analysis.
The mouse was wrapped with heat retention drapes on the platform that holds the mouse body securely for imaging CE cells by laser scanning IVCM using the Heidelberg Retina Tomograph III (HRT III) with Rostock Corneal Module (RCM) (Heidelberg Engineering). The laser confocal microscope acquires 2D images that represent a coronal section of the cornea of 400×400 μm (160,000 μm^2) at a selectable corneal depth. Acquired images comprise 384×384 pixels and with a lateral resolution of 1 μm per pixel. Digital images were stored on a computer workstation at 3 frames per second.
Analysis of CE Cell Density. The CE density of HRT images acquired before UVA and post-UVA at 2 wk and 1 and 2 mo was analyzed by a semiautomated cell counter in the software Heidelberg Eye Explorer, version 1.3.0 (Heidelberg Engineering GmbH) inbuilt in HRT3. The mean cell density was calculated from 3 mice whose HRT images were counted by at least 2 observers. For each image, an area with at least 50 cells was selected. For CE density calculated from the images of 3 mice with ZO-1 immunostaining, cell count was performed manually by 2 blinded observers using a plug-in for ImageJ 1.46r (https://imagescience.org/meijering/software/imagescience; provided in the public domain by Wayne Rasband, NIH). […]

The test system of data set [5] is mouse cornea. Nature of the data set: UVA-induced FECD mouse model: central corneal thickness (CCT) by OCT. The class given is in vivo. On the procedure: as §3, §1
In vivo Imaging. […] CCT was measured using inbuilt software.

For data set [6], the system named is mouse aqueous humor. Nature of the data set: ROS production assay (H2O2, Amplex Red) in mouse aqueous humor after UVA. To be noted: 1 d post-UVA. In kind it is in vivo. Here is the method:
as §3, with “All animal experiments were approved by the Institutional Animal Care and Use Committee and adhered to the ARVO Statement for the Use of Animals in Ophthalmic and Vision Research.” left out
Human Corneal Endothelial Cell Culture. […] The energy was measured using a laser sensor (model L49 [150A]; Ophir), and the time of UVA exposure was adjusted to deliver the appropriate fluence (10 min 29 s for 250 J/cm^2, 20 min 57 s for 500 J/cm^2, 31 min 26 s for 750 J/cm^2, and 41 min 54 s for 1,000 J/cm^2). […]
ROS Production Assay. Extracellular H2O2 levels in the mouse aqueous humor (3 μL), collected using a capillary needle from the dilated mouse anterior chamber, were detected using the Amplex Red Assay Kit (Molecular Probes, Life Technologies) according to manufacturer's instructions. Fluorescence was measured with excitation and emission at 550 and 590 nm, respectively, using a microplate reader (Bio-Tek) with Gen5 software at 37° C.

Data set [7] concerns MCEnCs. As to the kind of experiment: TUNEL assay on whole mount mouse CE after UVA. In kind it is in vivo. To be noted: females and males; 3 mo post-UVA. Here is the method:
as §3
(§4) Human Corneal Endothelial Cell Culture. Telomerase and SV40 T antigen immortalized normal human CE cell lines HCEnC-21T and HCEnC-SV-67F-16, respectively, were previously generated in our laboratory (26, 62). […] The energy was measured using a laser sensor (model L49 [150A]; Ophir), and the time of UVA exposure was adjusted to deliver the appropriate fluence (10 min 29 s for 250 J/cm^2, 20 min 57 s for 500 J/cm^2, 31 min 26 s for 750 J/cm^2, and 41 min 54 s for 1,000 J/cm^2). […]

Data set [8] deals with MCEnC mtDNA and nDNA. Nature of the data set: DNA damage analysis using LA-qPCR in MCEnCs after UVA. To be noted: 1,000 J/cm^2 UVA at 3 mo. In kind it is in vivo, mouse. On the procedure:
as §3, §4, §2

“Also recorded” adds a separate entry of the source.

Take `COc1cc(/C=C/c2ccc(OC)cc2OC)cc(OC)c1` [TMS, trans-2,3′,4,5′-tetramethoxystilbene]: the “corneal endothelial cell loss” value in data set [1] (1 week, 2 weeks and 1 month post 500 J/cm^2, 1.5 mg/kg intraperitoneally 1 h prior and 3 times a week for two weeks, vs DMSO, p<0.05) is “Rescue of corneal endothelial cell loss”. Besides, the “endothelial cell degeneration / UVA-induced corneal endothelial cell loss” value in data set [1] (mouse model of FECD, in vivo (FIGS. 11 and 12)) is given as “delayed the endothelial cell degeneration; also recorded: Rescue of UVA-induced corneal endothelial cell loss”. The “morphology of CEnC vs vehicle” value in data set [2] (NQO1+/+ and NQO1−/− female mice, TMS 1 mg/kg ip three times a week, weeks 2 and 4 post-UVA 500 J/cm^2) is recorded as “less irregular morphology”. In addition, the “CEnC number vs vehicle” value in data set [2] (NQO1+/+ and NQO1−/− female mice, TMS 1 mg/kg ip, weeks 2 and 4 post-UVA 500 J/cm^2) is listed as “higher CEnC number; also recorded: reduces CEnC loss”.

In the case of `C[C@]12CC[C@@H]3c4ccc(O)c(O)c4CC[C@H]3[C@@H]1CC[C@@H]2O` [4-OHE2, 4-hydroxyestradiol], in data set [3], the “DNA lesions in the nuclear encoded β-globin gene” value is 0.46 DNA lesions per 10 kb and the mtDNA lesions is listed as 0.65 DNA lesions per 10 kb.

As to `COc1ccc2cc3[n+](cc2c1OC)CCc1cc2c(cc1-3)OCO2` [berberine], the “morphology of CEnC vs vehicle” value in data set [2] (NQO1+/+ and NQO1−/− female mice, berberine 10 mg/kg ip, week 2 post-UVA 500 J/cm^2) is “less irregular morphology”. Moreover, the “CEnC number vs vehicle” value in data set [2] (NQO1+/+ females, berberine 10 mg/kg ip, week 2 post-UVA) is “trend towards higher CEnC number”; in data set [2] (NQO1−/− females, berberine 10 mg/kg ip, week 2 post-UVA) it was “significantly higher CEnC number”. Also, in data set [2] (berberine 10 mg/kg, mouse model of Fuchs Dystrophy (FIG. 14 title)), the “UVA light-induced CEnC loss” value is “rescues UVA light-induced CEnC loss”.

Turning to `CC(=O)N[C@@H](CS)C(=O)O` [NAC, N-acetylcysteine], the “morphological and molecular changes induced by UVA” value in data set [4] (UVA 1000 J/cm^2, in vivo (FIG. 10)) is “rescued”. In addition, the “increase in MCEnC density vs 1,000 J/cm^2 UVA irradiation only” value in data set [4] (females) is listed as 1.7 fold; in data set [4] (males), 1.6 fold. Besides, the MCEnC density is listed as 1,521±313 cells per square millimeter in data set [4] (females, no-NAC 855±115) and 1,560±136 cells per square millimeter in data set [4] (males, no-NAC 944±136). The endothelial cell density entry in data set [4] (male and female, 3 mo after UVA, ZO-1 immunostaining) is “significantly rescued”. Also, the CCT result in data set [5] (1 to 3 mo after 1,000 J/cm^2 UVA) is recorded as “remained close to the untreated baseline”. Further, the “CCT vs 1,000 J/cm^2 treated females” value in data set [5] (females, 1, 2, and 3 mo after 1,000 J/cm^2 UVA) is given as “significant decrease in CCT”. Further, the “CCT vs 1,000 J/cm^2 treated males” value in data set [5] (males, 2 wk and 1 and 3 mo after 1,000 J/cm^2 UVA) is reported as “significant decrease in CCT”. Further, the “ROS formed due to UVA (H2O2 in aqueous humor)” value in data set [6] was “significantly reduced”. Besides, the “TUNEL-positive cells vs non-NAC-treated UVA irradiated mice” value in data set [7] was “significantly less TUNEL-positive cells”. In addition, the nDNA damage entry in data set [8] (both sexes) is “significantly rescued”. For the same molecule, the mtDNA damage entry in data set [8] (females) is reported as “persisted”.

For the origin of these results see patent US12728118B2, “Methods and compositions for the treatment of corneal endothelium disorders” (The Schepens Eye Research Institute, Inc., priority 2020, dated 2026).
